Among the data in patent publication US11427558B1, “Indazoles and azaindazoles as LRRK2 inhibitors” (ESCAPE Bio, Inc., priority 2019, dated 2022) are IC50 values, retold here.

pIC50: −log10 of the molar value.

Test [1] has as its target Recombinant G2019S-LRRK2 protein (Homo sapiens (Human), UniProt Q5S007, G2019S). The test can be described thus: LRRK2 kinase activity, LanthaScreen TR-FRET assay (G2019S). The test is classed as biochemical. As to conditions: LRRKtide 400 nM, 25 μM ATP, 60 min. On the procedure: (§1) LRRK2 kinase activity was measured using a LanthaScreen™ Kinase Activity Assay from ThermoFisher Scientific. Recombinant wild type or G2019S-LRRK2 protein (Life Technologies, PR8604B or PV4881, respectively), was incubated with a fluorescein-labeled peptide substrate called LRRKtide that is based upon ezrin/radixin/moesin (ERM) (Life Technologies, PV4901) in the presence of ATP and serially diluted compound. […] Compound-dependent inhibition of the TR-FRET signal was used to generate a concentration-response curve for IC50 determination.
(§2) After 60 min incubation at room temperature, the reaction was stopped by addition of 10 μL of 2× stop solution containing a final concentration of 2 nM anti-pERM antibody and 10 mM EDTA. […] The ratio of the 520 nm and 495 nm emission was used to analyze the data.
(In general: Time-resolved FRET reads energy transfer from a long-lived donor to a nearby acceptor.)

Test [2] addresses Recombinant wild type LRRK2 protein (Homo sapiens (Human), UniProt Q5S007). The test can be described thus: LRRK2 kinase activity, LanthaScreen TR-FRET assay (wild type). The note with it: LRRKtide 400 nM, 25 μM ATP, 60 min; read-out: LRRK2 WT IC50. The test is classed as biochemical. How it is done:
as §1, §2

Sequence of Recombinant G2019S-LRRK2 protein (Q5S007 whole entry G2019S): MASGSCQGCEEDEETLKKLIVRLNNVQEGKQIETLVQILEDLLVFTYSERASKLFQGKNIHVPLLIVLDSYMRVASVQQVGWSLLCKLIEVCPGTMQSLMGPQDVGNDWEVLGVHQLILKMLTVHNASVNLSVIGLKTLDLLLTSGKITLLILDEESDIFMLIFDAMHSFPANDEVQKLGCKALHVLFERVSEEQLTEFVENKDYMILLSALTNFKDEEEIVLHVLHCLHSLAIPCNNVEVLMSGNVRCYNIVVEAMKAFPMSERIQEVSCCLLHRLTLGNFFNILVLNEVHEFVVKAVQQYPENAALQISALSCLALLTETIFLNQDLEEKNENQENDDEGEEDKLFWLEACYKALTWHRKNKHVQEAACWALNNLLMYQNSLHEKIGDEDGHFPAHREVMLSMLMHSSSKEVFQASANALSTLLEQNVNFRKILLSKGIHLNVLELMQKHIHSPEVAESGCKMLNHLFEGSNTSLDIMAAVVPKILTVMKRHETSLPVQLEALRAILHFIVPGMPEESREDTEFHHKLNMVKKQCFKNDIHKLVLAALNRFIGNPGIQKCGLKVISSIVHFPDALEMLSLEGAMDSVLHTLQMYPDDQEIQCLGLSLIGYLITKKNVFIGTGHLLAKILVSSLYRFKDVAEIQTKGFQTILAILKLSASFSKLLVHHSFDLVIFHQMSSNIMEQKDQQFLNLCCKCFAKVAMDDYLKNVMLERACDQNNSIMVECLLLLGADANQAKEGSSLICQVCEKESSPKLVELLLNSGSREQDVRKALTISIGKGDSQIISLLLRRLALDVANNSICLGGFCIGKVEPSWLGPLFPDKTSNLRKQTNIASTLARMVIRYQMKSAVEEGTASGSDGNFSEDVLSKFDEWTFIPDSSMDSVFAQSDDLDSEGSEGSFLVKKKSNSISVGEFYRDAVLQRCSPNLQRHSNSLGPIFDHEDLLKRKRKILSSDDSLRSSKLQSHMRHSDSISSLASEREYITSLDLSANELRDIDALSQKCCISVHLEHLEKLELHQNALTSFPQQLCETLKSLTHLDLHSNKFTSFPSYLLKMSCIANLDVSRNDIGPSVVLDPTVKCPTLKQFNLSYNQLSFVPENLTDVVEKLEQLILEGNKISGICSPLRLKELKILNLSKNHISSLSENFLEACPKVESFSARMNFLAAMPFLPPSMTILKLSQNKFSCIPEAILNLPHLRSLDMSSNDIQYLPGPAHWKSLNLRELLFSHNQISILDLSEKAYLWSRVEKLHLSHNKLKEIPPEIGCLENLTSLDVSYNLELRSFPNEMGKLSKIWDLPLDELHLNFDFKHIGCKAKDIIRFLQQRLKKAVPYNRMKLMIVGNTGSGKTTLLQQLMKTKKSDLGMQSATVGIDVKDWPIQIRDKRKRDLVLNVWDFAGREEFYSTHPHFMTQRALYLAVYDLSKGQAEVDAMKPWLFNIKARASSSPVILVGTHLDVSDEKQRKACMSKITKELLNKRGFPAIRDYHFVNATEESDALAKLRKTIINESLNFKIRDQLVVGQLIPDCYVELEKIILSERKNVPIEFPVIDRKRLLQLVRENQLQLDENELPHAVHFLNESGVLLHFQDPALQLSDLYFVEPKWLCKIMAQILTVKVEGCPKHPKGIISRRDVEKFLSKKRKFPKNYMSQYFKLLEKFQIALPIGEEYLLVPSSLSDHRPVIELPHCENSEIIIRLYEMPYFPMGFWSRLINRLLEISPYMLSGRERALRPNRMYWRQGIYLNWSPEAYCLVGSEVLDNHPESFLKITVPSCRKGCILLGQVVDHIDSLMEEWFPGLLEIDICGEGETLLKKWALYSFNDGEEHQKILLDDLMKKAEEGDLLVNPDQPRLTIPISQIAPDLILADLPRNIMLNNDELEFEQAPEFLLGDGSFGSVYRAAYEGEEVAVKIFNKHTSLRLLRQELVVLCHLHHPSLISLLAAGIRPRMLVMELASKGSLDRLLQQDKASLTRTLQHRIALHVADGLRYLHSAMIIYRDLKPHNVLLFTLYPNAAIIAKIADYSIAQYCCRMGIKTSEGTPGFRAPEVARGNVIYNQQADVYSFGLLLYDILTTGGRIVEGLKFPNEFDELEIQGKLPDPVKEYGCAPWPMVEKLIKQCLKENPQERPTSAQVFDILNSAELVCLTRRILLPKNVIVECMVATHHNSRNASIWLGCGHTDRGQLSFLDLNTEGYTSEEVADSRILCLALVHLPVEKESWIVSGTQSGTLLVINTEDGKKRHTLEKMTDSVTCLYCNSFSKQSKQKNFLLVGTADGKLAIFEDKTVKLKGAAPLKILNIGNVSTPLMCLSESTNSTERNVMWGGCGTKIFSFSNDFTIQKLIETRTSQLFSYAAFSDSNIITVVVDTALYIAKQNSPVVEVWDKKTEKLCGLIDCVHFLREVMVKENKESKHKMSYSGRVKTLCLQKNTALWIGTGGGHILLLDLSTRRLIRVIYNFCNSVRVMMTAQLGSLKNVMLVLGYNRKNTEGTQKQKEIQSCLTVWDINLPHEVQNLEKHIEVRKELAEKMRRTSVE
Sequence of Recombinant wild type LRRK2 protein (Q5S007 whole entry): as the sequence (Q5S007 whole entry G2019S) above, with S2019G counted along it

For orientation: pIC50 means the IC50 on a negative log10 scale, so that one unit is a factor of ten. For the molecule `Cc1c(C(=O)Nc2ccc3[nH]nc(-c4ccccc4)c3c2)cc(C#N)n1C` [Example 26, 5-Cyano-1,2-dimethyl-N-(3-phenyl-1H-indazol-5-yl)-1H-pyrrole-3-carboxamide], the pIC50 in test [1] was greater than 7.00; in test [2] it was 6.00 to 7.00.
Take `Cc1oc(C#N)cc1C(=O)Nc1ccc2[nH]nc(-c3ccccc3)c2c1` [Example 27, 5-Cyano-2-methyl-N-(3-phenyl-1H-indazol-5-yl)furan-3-carboxamide]: the values for the pIC50 in test [1] and in test [2] were greater than 7.00 and 6.00 to 7.00, respectively.
For `Cc1ccc(-c2n[nH]c3ccc(NC(=O)c4ncc(C#N)cc4C)cc23)cc1C` [Example 28, 5-Cyano-N-(3-(3,4-dimethylphenyl)-1H-indazol-5-yl)-3-methylpicolinamide], in that order: greater than 7.00 and 6.00 to 7.00.
In the same order, the values of `Cc1cc(C#N)cnc1C(=O)Nc1ccc2[nH]nc(-c3ccco3)c2c1` [Example 29, 5-Cyano-N-(3-(furan-2-yl)-1H-indazol-5-yl)-3-methylpicolinamide] are greater than 7.00 and 6.00 to 7.00.
As to `Cc1cc(C#N)cnc1C(=O)Nc1ccc2[nH]nc(-c3cccc(N(C)C)c3)c2c1` [Example 30, 5-Cyano-N-(3-(3-(dimethylamino)phenyl)-1H-indazol-5-yl)-3-methylpicolinamide], the pIC50 was greater than 7.00 in test [1] and 6.00 to 7.00 in test [2].
Consider `Cc1cc(C#N)cnc1C(=O)Nc1ccc2[nH]nc(-c3ccncc3)c2c1` [Example 31, 5-Cyano-3-methyl-N-(3-(pyridin-4-yl)-1H-indazol-5-yl)picolinamide], for which the values for the pIC50 in test [1] and in test [2] were greater than 7.00 and 6.00 to 7.00, respectively.
For `Cc1cc(C#N)cnc1C(=O)Nc1ccc2[nH]nc(-c3cnn(C(F)F)c3)c2c1` [Example 32, 5-Cyano-N-(3-(1-(difluoromethyl)-1H-pyrazol-4-yl)-1H-indazol-5-yl)-3-methylpicolinamide], in that order: greater than 7.00 and 6.00 to 7.00.
Consider `Cc1cc(C#N)cnc1C(=O)Nc1ccc2[nH]nc(-c3cnn(C4CCOCC4)c3)c2c1` [Example 33, 5-cyano-3-methyl-N-(3-(1-(tetrahydro-2H-pyran-4-yl)-1H-pyrazol-4-yl)-1H-indazol-5-yl)picolinamide], for which the pIC50 in test [1] and in test [2] was greater than 7.00 each time.
Consider `Cc1cc(C#N)cnc1C(=O)Nc1ccc2[nH]nc(-c3cccc(S(C)(=O)=O)c3)c2c1` [Example 34, 5-Cyano-3-methyl-N-(3-(3-(methylsulfonyl)phenyl)-1H-indazol-5-yl)picolinamide], for which the pIC50 in test [1] and in test [2] was greater than 7.00 throughout.
As to `Cc1cc(C#N)cnc1C(=O)Nc1ccc2[nH]nc(-c3ccc(C(F)(F)F)cc3)c2c1` [Example 35, 5-Cyano-3-methyl-N-(3-(4-(trifluoromethyl)phenyl)-1H-indazol-5-yl)picolinamide], the pIC50 in test [1] was 6.00 to 7.00; in test [2] it was less than 5.00.
As for `Cc1cc(C#N)cnc1C(=O)Nc1ccc2[nH]nc(-c3cnoc3C)c2c1` [Example 36, 5-Cyano-3-methyl-N-(3-(5-methylisoxazol-4-yl)-1H-indazol-5-yl)picolinamide], the pIC50 in test [1] is greater than 7.00; in test [2], less than 5.00.
In the same order, the values of `Cc1cc(C#N)cnc1C(=O)Nc1ccc2[nH]nc(-c3cncc(N4CCOCC4)c3)c2c1` [Example 37, 5-Cyano-3-methyl-N-(3-(5-morpholinopyridin-3-yl)-1H-indazol-5-yl)picolinamide] are greater than 7.00 and 6.00 to 7.00.
In the same order, the values of `Cc1cc(C#N)cnc1C(=O)Nc1ccc2[nH]nc(-c3ccc(OC(C)C)nc3)c2c1` [Example 38, 5-Cyano-N-(3-(6-isopropoxypyridin-3-yl)-1H-indazol-5-yl)-3-methylpicolinamide] are greater than 7.00 and 6.00 to 7.00.
`N#Cc1cnc(C(=O)Nc2ccc3[nH]nc(-c4ccoc4)c3c2)cc1O` [Example 39, 5-Cyano-N-(3-(furan-3-yl)-1H-indazol-5-yl)-4-hydroxypicolinamide]: the pIC50 in test [1] and in test [2] was 5.00 to 6.00 each time.
With `Cc1cc(C#N)cnc1C(=O)Nc1ccc2[nH]nc(-c3ccccc3)c2c1` [Example 40, 5-Cyano-3-methyl-N-(3-phenyl-1H-indazol-5-yl)picolinamide], the figures for the pIC50 in test [1] and in test [2] were greater than 7.00 and 6.00 to 7.00, respectively.
In the same order, the values of `Cc1cc(C#N)cnc1C(=O)Nc1ccc2[nH]nc(-c3cccc(C#N)c3)c2c1` [Example 41, 5-Cyano-N-(3-(3-cyanophenyl)-1H-indazol-5-yl)-3-methylpicolinamide] are greater than 7.00 and 6.00 to 7.00.
On to `Cc1cc(C#N)cnc1C(=O)Nc1ccc2[nH]nc(-c3cncc(C#N)c3)c2c1` [Example 42, 5-Cyano-N-(3-(5-cyanopyridin-3-yl)-1H-indazol-5-yl)-3-methylpicolinamide], for which the negative-log IC50 (pIC50) was greater than 7.00 in test [1] and 6.00 to 7.00 in test [2].
In the case of `Cc1nc(C#N)n(C)c1C(=O)Nc1ccc2[nH]nc(-c3ccccc3)c2c1` [Example 43, 2-Cyano-1,4-dimethyl-N-(3-phenyl-1H-indazol-5-yl)-1H-imidazole-5-carboxamide], the pIC50 in test [1] was greater than 7.00; in test [2], 6.00 to 7.00.
In the same order, the values of `Cc1cc(C#N)c(C)nc1C(=O)Nc1ccc2[nH]nc(-c3ccoc3)c2c1` [Example 44, 5-Cyano-N-(3-(furan-3-yl)-1H-indazol-5-yl)-3,6-dimethylpicolinamide] are greater than 7.00 and greater than 7.00.
For `Cc1cc(C#N)cnc1C(=O)Nc1ccc2[nH]nc(-c3ccc(N4CCN(C)CC4)cc3)c2c1` [Example 45, 5-Cyano-3-methyl-N-(3-(4-(4-methylpiperazin-1-yl)phenyl)-1H-indazol-5-yl)picolinamide], in that order: greater than 7.00 and greater than 7.00.
In the same order, the values of `COc1cc(F)cc(-c2n[nH]c3ccc(NC(=O)c4ncc(C#N)cc4C)cc23)c1` [Example 46, 5-Cyano-N-(3-(3-fluoro-5-methoxyphenyl)-1H-indazol-5-yl)-3-methylpicolinamide] are greater than 7.00 and 6.00 to 7.00.
On to `COc1ccc(-c2n[nH]c3ccc(NC(=O)c4ncc(C#N)cc4C)cc23)cc1` [Example 47, 5-Cyano-N-(3-(4-methoxyphenyl)-1H-indazol-5-yl)-3-methylpicolinamide], for which the pIC50 in test [1] is greater than 7.00; in test [2] it was 6.00 to 7.00.
For `COc1cc(-c2n[nH]c3ccc(NC(=O)c4ncc(C#N)cc4C)cc23)ccn1` [Example 48, 5-Cyano-N-(3-(2-methoxypyridin-4-yl)-1H-indazol-5-yl)-3-methylpicolinamide], in that order: greater than 7.00 and 6.00 to 7.00.
In the same order, the values of `Cc1cc(C#N)ncc1C(=O)Nc1ccc2[nH]nc(-c3ccoc3)c2c1` [Example 49, 6-Cyano-N-(3-(furan-3-yl)-1H-indazol-5-yl)-4-methylnicotinamide] are greater than 7.00 and 6.00 to 7.00.
For `Cc1cc(C#N)cnc1C(=O)Nc1ccc2[nH]nc(-c3cccnc3)c2c1` [Example 50, 5-Cyano-3-methyl-N-(3-(pyridin-3-yl)-1H-indazol-5-yl)picolinamide], in that order: greater than 7.00 and 6.00 to 7.00.
With `Cc1cc(-c2n[nH]c3ccc(NC(=O)c4ncc(C#N)cc4C)cc23)ccc1F` [Example 51, 5-Cyano-N-(3-(4-fluoro-3-methylphenyl)-1H-indazol-5-yl)-3-methylpicolinamide], the pIC50 in test [1] is greater than 7.00; in test [2], 6.00 to 7.00.
